# Results reported in patent US20090275730A1, “Temperature responsive depsipeptide polymer” (priority 2004, published 2009).
# Experiment: Water solubility and temperature responsibility in aqueous solvent (visual / turbidity)
# From the text: However, the depsipeptide unit is not considered to be a material which exerts temperature responsibility in an aqueous solvent containing no organic solvent. […] Accordingly, the depsipeptide unit -Gly-X2-Cly-Hmb-Pro-(X2=any α-amino acid residue) is thought to be unsuitable as a temperature responsive material and thus has not been investigated intensively.
substance,measurement,value
Poly[(Gly^1-Val^2-Gly^3-Hmb^4-Ala^5-Pro^6)-co-(Gly^7-Lys(Z)^8-Gly^9-Val^10-Ala^11-Pro^12)],temperature responsibility in aqueous solvent,temperature responsibility thereof was confirmed
